Data from PubChem BioAssay AID1996.
In brackets after ≈: the same amount, converted by molar mass.

Conditions: buffer; pH 7.4; 200.0 µM

| Structure (SMILES) | solubility kinetic [µg/mL] |
| --- | --- |
| O=C(CN1CCCCC1)Nc1ccc(C(F)(F)F)cc1Cl | 2.5 (≈ 7.79 µM) |
| O=C(O)c1ccc(Cl)c(S(=O)(=O)NCc2cccnc2)c1 | > 49 |
| c1ccc(CNc2ncnc3scc(-c4cccs4)c23)nc1 | 37.2 (≈ 115 µM) |
| O=C(CSc1nc2ccccc2s1)Nc1ccc(C(=O)O)cc1 | > 51.7 |
| CC1COc2ccccc2N1C(=O)c1ccc(Cl)cc1 (stereo not given) | 31.3 (≈ 109 µM) |
| COC(=O)C1CCN(S(=O)(=O)Cc2ccccc2Cl)CC1 | > 49.8 |
| CC(C)c1cc(=O)[nH]c(N2CCN(Cc3ccc4c(c3)OCO4)CC2)n1 | 49.9 (≈ 140 µM) |
| CC1CCCC(NC(=O)CSc2ncnc3ccccc23)C1C (stereo not given) | 24.1 (≈ 73.1 µM) |
| CN1CCN(c2nc(Nc3ccccc3)nc(N)c2[N+](=O)[O-])CC1 | 47.5 (≈ 144 µM) |
| O=C(NCCCO)C(=O)Nc1cc2c3c(c1)CCC(=O)N3CCC2 | 48.8 (≈ 147 µM) |
| CC(C)CNC(=S)N1CCC(Cc2ccccc2)CC1 | 9.3 (≈ 32 µM) |
| CCCCOCCCNC(=O)N[C@H](C(=O)O)C(C)CC (stereo not given in full) | > 43.3 |
| Oc1ccc2ccccc2c1C=NC1CCCCC1 | > 38 |
| Cc1ccc(N)cc1S(=O)(=O)N(C)C | > 32.1 |
| N#Cc1cccnc1Oc1ccccc1 | 25.3 (≈ 129 µM) |
| CC1CCCC(NC(=O)COC(=O)CCC(=O)c2ccc(F)cc2)C1C (stereo not given) | 11.5 (≈ 31.6 µM) |
| CN(C)c1nc(-c2cccnc2)nc(-c2ccccc2)c1C#N | 0.6 (≈ 1.99 µM) |
| CC(OC(=O)c1cccs1)C(=O)NC1CC1 (stereo not given) | > 35.9 |
| Cc1cc(C)n2cc(CSc3ccc(Cl)cc3)nc2n1 | > 45.6 |
| O=C(NC(=S)Nc1ccc2nc[nH]c2c1)c1ccccc1 | 35 (≈ 118 µM) |
| Cc1cc(C)c(NC(=O)C2CC(=O)N(C3CCCC3)C2)c(C)c1 (stereo not given) | > 47.2 |
| Br.CCCN(CCC)C1CCc2cccc(O)c2C1 (stereo not given) | > 49.2 |
| O=C(NC1CCCCCC1)C1CCCN(c2ncccn2)C1 (stereo not given) | > 45.4 |
| CCC(=O)N1CCN=C1SCc1cc(C)ccc1C | 35.6 (≈ 129 µM) |

| Structure (SMILES) | solubility kinetic [µg/mL] |
| --- | --- |
| Cc1ccccc1Cn1cnc2c(oc3ccccc32)c1=O | 0.9 (≈ 3.1 µM) |
| C=CCN1C(=O)C2(OCCCO2)c2ccccc21 | 36.7 (≈ 150 µM) |
| C=CCNc1nc(Cl)nc(Nc2cc(Cl)ccc2OC)n1 | < 0.1 |
| O=C(Nc1ccccc1)N1CCN(C(=O)Nc2ccccc2)CC1 | 3.1 (≈ 9.56 µM) |
| CCCOc1ccc(-c2c(=O)n(O)c3ccccc3[n+]2[O-])cc1 | > 46.8 |
| CC(=O)c1ccc(OCCCOc2cccc3cccnc23)cc1 | 12.2 (≈ 38 µM) |
| CC1CCCC(NC(=O)/C=C/c2c(F)cccc2Cl)C1C (stereo not given) | 0.9 (≈ 2.9 µM) |
| COc1cccc(OCC(O)CNC(=O)c2oc3ccc(C)cc3c2C)c1 (stereo not given) | 20.2 (≈ 54.7 µM) |
| CN(C)c1nc(NCc2ccccc2)nc(SCC(N)=O)n1 | 43.7 (≈ 137 µM) |
| CCOc1cc(C)c(S(=O)(=O)NCCCn2ccnc2)cc1C | 41.2 (≈ 122 µM) |
| Cc1ccccc1C(=O)NCCOc1ccccc1Cl | 40.4 (≈ 139 µM) |
| CC(=O)N1CCc2ccc(S(=O)(=O)Nc3ccccc3Cl)cc21 | 39.2 (≈ 112 µM) |
| CCOC(=O)C1=C(C)NC2=C(C(=O)OC2)C1c1ccccc1 (stereo not given) | > 44.9 |
| CC(C)C(C)NC(=O)CN1C(=O)NC2(CCc3ccccc32)C1=O (stereo not given) | > 49.4 |
| O=C(Cc1ccc(Br)cc1)NCc1ccccc1 | 4.1 (≈ 13.5 µM) |
| O=S(=O)(Nc1cccnc1Cl)c1ccc(F)cc1 | > 43 |
| CC(=O)Nc1ccc(NC(=O)c2cc([N+](=O)[O-])cc([N+](=O)[O-])c2)cc1 | 7.9 (≈ 22.9 µM) |
| O=C(/C=C/c1ccco1)NCCc1ccccc1 | 33.1 (≈ 137 µM) |
| Cc1ccc(S(=O)(=O)N2CC(=O)NC(=O)C2)cc1 | > 40.2 |
| Cc1ccc(C(=O)Nc2ccc3ccccc3n2)cc1 | 2.3 (≈ 8.77 µM) |
| O=C(CN1C(=O)S/C(=C\c2cc(Cl)c(O)c(Cl)c2)C1=O)Nc1ccccc1 | 3.6 (≈ 8.51 µM) |
| O=C(CCc1ccccc1)NCC(=O)N/N=C/c1ccc(O)cc1O | > 51.2 |
| CCCCN1C(=O)C(=O)N(CC(=O)Nc2ccccc2C(=O)OCC)C1=O | 55.1 (≈ 147 µM) |
| Cc1ccc2c(c1)N(CC(=O)N1CCCCC1)C(=O)C(C)O2 (stereo not given) | > 45.4 |

| Structure (SMILES) | solubility kinetic [µg/mL] |
| --- | --- |
| O=C(CNC(=O)[C@@H]1Cc2ccccc2CN1)NC1CCCCC1 | > 47.3 |
| COc1cccc(NC2=NCCCS2)c1 | > 33.3 |
| COc1ccc(-c2noc(CCC(=O)NCCc3ccccc3)n2)cc1 | 5.4 (≈ 15.4 µM) |
| CCOc1ncccc1C(=O)OCC(=O)c1ccccc1 | 39.9 (≈ 140 µM) |
| Cc1csc(Nc2nc(N)c(C(=O)Nc3cc(Cl)ccc3F)o2)n1 | 3.1 (≈ 8.43 µM) |
| Cc1ccc(C)c(NC(=O)CCN2CCCCC2)c1 | > 39.1 |
| CCCCn1c(O)c(C(=O)/C=C/c2ccc3c(c2)OCO3)c(=O)[nH]c1=O | > 53.8 |
| COCc1cc(C)nc(NC2CC(C)(C)NC(C)(C)C2)c1C#N | > 47.5 |
| COC(=O)c1ccc(NC(=O)c2cccc(NC(=O)c3ccccc3)c2)cc1 | 0.9 (≈ 2.4 µM) |
| O=C(Cc1ccc(Cl)cc1)Nc1cc(Cl)ccn1 | 3.5 (≈ 12.4 µM) |
| OCC1CCCN(c2ncnc3scc(-c4ccccc4)c23)C1 (stereo not given) | 47.4 (≈ 146 µM) |
| COC1C(C)=C(C)C(=O)N1Cc1ccc(F)cc1 (stereo not given) | 31.9 (≈ 128 µM) |
| O=Cc1c(NC2CCCCC2)c2ccccc2[nH]c1=O | 35.2 (≈ 130 µM) |
| O=C(O)c1cc([N+](=O)[O-])c(Sc2nc3ccccc3[nH]2)c([N+](=O)[O-])c1 | > 54 |
| COC(=O)c1ccc(NC(=S)NCCc2ccc(OC)cc2)cc1 | 0.8 (≈ 2.32 µM) |
| COc1ccccc1CC(=O)NCCN1CCCCC1 | 39.3 (≈ 142 µM) |
| CC12CS(=O)(=O)CC1SC(=S)N2Cc1ccccc1 (stereo not given) | 44.2 (≈ 141 µM) |
| O=C(COC(=O)c1ccc(Br)o1)NCc1ccc2c(c1)OCO2 | 29.9 (≈ 78.2 µM) |
| O=[N+]([O-])c1ccccc1Oc1ncccc1[N+](=O)[O-] | 27.3 (≈ 105 µM) |
| Fc1ccccc1-c1nc(-c2ccncc2)no1 | 6 (≈ 24.9 µM) |
| COc1ccc2oc(=O)c(C(=O)Nc3ccccc3C)cc2c1 | 2.3 (≈ 7.44 µM) |
| CCCCC(=O)Nc1cc(-c2nc3ncccc3o2)ccc1C | 4 (≈ 12.9 µM) |
| CCOC(=O)c1cc(C)sc1/N=C/C1C(=O)NC(=S)NC1=O | 4.7 (≈ 13.8 µM) |
| CCN(C(=O)c1cccs1)c1nc(-c2ccc(OC)cc2)cs1 | 0.6 (≈ 1.74 µM) |

| Structure (SMILES) | solubility kinetic [µg/mL] |
| --- | --- |
| O=C(CN1CCN(c2ccccc2)CC1)Nc1ccncc1 | 38.6 (≈ 130 µM) |
| CC(C)C1Oc2ccccc2N(CC(=O)N(C)C2CCCCC2)C1=O (stereo not given) | > 51.7 |
| CCc1ccccc1NC(=O)CCS(=O)(=O)c1ccc(OC)cc1 | 26.4 (≈ 76 µM) |
| O=Cc1ccc(OCC(=O)NCC2CCCO2)cc1 (stereo not given) | 36.4 (≈ 138 µM) |
| COc1ccc(-c2nc3ccc(C)cc3c(=O)o2)cc1OC | < 0.6 |
| O=C(c1cccc(F)c1F)N1CCCc2ccccc21 | 31.1 (≈ 114 µM) |
| COc1ccc(CN2C(=O)c3ccc(C(=O)O)cc3C2=O)cc1 | > 46.7 |
| COc1cccc(/C=C/c2ccc3cccc(O)c3n2)c1OC | 1.2 (≈ 3.9 µM) |
| Nc1c(N(Cc2ccccc2)C(=O)COc2ccc(F)cc2Cl)c(=O)[nH]c(=O)n1Cc1ccccc1 | 9.4 (≈ 18.5 µM) |
| N/C(=N\OC(=O)c1ccc([N+](=O)[O-])cc1)c1ccccn1 | 3.2 (≈ 11.2 µM) |
| NS(=O)(=O)c1ccc(CCNC(=O)c2ccco2)cc1 | > 44.1 |
| Cn1c(=O)c2c(ncn2CC(=O)OCC(=O)Nc2cc(Cl)ccc2C#N)n(C)c1=O | 63.2 (≈ 147 µM) |
| CCOc1ccccc1C(=O)NCC(=O)N(C)Cc1cccnc1 | 44.8 (≈ 137 µM) |
| Nc1ccc(Oc2ccc(F)cc2)nc1 | 27.6 (≈ 135 µM) |
| CCOC(=O)C(=CNc1cc(C)ccc1[N+](=O)[O-])C(=O)OCC | < 0.3 |
| Cc1cc(C)c(S(=O)(=O)Cc2ccccc2)c(OC(C)C)n1 | 26 (≈ 81.4 µM) |
| COc1ccc(NC(=O)c2cc(C)no2)cc1OC | > 39.3 |
| COc1ccc(-c2csc(NC(=O)CN3C(=O)CCC3=O)n2)cc1 | 11.7 (≈ 33.9 µM) |
| COc1cc2nc(CN3CCN(S(=O)(=O)c4ccccc4C(F)(F)F)CC3)[nH]c(=O)c2cc1OC | 12.4 (≈ 24.2 µM) |
| CCOC(=O)c1cc(C#N)c(SCC(N)=O)[nH]c1=O | > 42.2 |
| CCOc1ccc(NC(=O)c2ccccc2SC)cc1 | 2.4 (≈ 8.35 µM) |
| O=C(O)c1sccc1NC(=O)c1c(Cl)cccc1Cl | > 47.4 |
| Cc1ccc(NC(=O)COC(=O)Cc2ccccc2)cc1S(=O)(=O)N1CCOCC1 | 58.1 (≈ 134 µM) |
| COc1ccnc2c1c(=O)n(Cc1cccc(F)c1)c(=O)n2C | 37.9 (≈ 120 µM) |

| Structure (SMILES) | solubility kinetic [µg/mL] |
| --- | --- |
| CCCN(CC1CC1)C(=S)Nc1ccc(C(C)=O)cc1 | > 43.6 |
| Cc1ccc(-c2csc3nc[nH]c(=O)c23)c(C)c1 | 2.4 (≈ 9.36 µM) |
| O=C(COC(=O)C12CC3CC(CC(C3)C1)C2)Nc1nccs1 | < 0.3 |
| CCc1ccccc1NC(=O)N1CCc2ccccc2C1 | > 42.1 |
| O=C(NC1CCCN(CCc2ccccc2)C1)c1c[nH]c2ccccc12 (stereo not given) | 49.3 (≈ 142 µM) |
| CSCCC(NC(=O)COc1ccccc1)C(=O)O (stereo not given) | 31.7 (≈ 112 µM) |
| Cc1ccc(S(=O)(=O)Nc2cccnc2)c(C)c1C | 9.1 (≈ 32.9 µM) |
| Cc1ccc(NC(=O)CC(N)=S)cc1 | 30.7 (≈ 147 µM) |
| CC12CCC(=O)N1C(C(=O)N1CCN(c3ccc([N+](=O)[O-])cc3)CC1)CS2 (stereo not given) | 30.7 (≈ 78.6 µM) |
| CCC(CC)C(=O)NCc1cccnc1 | > 30.9 |
| O=C(Cn1cnc2ccccc2c1=O)N1CCc2ccccc2C1 | > 47.9 |
| CC1(C)Oc2ccc(C(=O)NC3CCCCC3)cc2N(CC#N)C1=O | 12.9 (≈ 37.8 µM) |
| CC1CCC(NC(=O)C(C)N2C(=O)C3CCCCC3C2=O)CC1 (stereo not given) | > 48.1 |
| COC(=O)C1CCN(C(=O)c2cc(-c3ccco3)nc3ccccc23)CC1 | > 54.7 |
| COc1ccccc1NC(=O)Nc1cccc(NC(C)=O)c1 | 34.2 (≈ 114 µM) |
| O=C1Nc2ccc([N+](=O)[O-])cc2OC1CCN1CCCC1 (stereo not given) | > 43.7 |
| O=C(COC(=O)c1ccncc1)Nc1ccc2c(c1)OCO2 | > 45 |
| COc1cc(OC)cc(C(=O)NCc2ccc(-n3cccc3)cc2)c1 | 0.4 (≈ 1.19 µM) |
| CSc1ccccc1C(=O)N1CCCCC1 | > 35.3 |
| NC(=O)c1ccccc1OCC(=O)N1CCc2ccccc2C1 | > 46.6 |
| O=C(Cc1ccccc1)NCC(=O)N1CCC1 | > 34.8 |
| Cl.O=C(O)Cc1cnc[nH]1 | > 24.4 |
| Cc1cccc(OC(C)C(=O)Nc2nc(-c3ccncc3)cs2)c1 (stereo not given) | 3.4 (≈ 10 µM) |
| Cc1ccc(S(=O)(=O)NC(C)C(=O)NC2CC2)cc1 (stereo not given) | 41 (≈ 145 µM) |
